The source of these data is patent publication US20250275966A1, “GABAA RECEPTOR MODULATOR SALTS, PARTICLES, AND USES THEREOF” (Engrail Therapeutics, Inc., priority 2022, published 2025).

Where a name gives a salt, the structure may show the parent alone.

Series [1] can be described thus: Pharmacokinetic analysis of Compound 1 and its salts after oral capsule administration (Example 4). It counts as in vivo, cynomolgus monkeys. Particulars: single PO capsule, 30 mg/kg. As to the method: A pharmacokinetic analysis was performed comparing administration of Compound 1 with certain salts of Compound 1 after oral (PO) administration in 3 male cynomolgus monkeys. The subjects received a single PO oral gavage of active pharmaceutical ingredient (API) (e.g., Compound 1 fumarate, Compound 1 sulfate, Compound 1 hydrochloride, Compound 1 phosphate, Compound 1 tosylate, Compound 1 malonate, Compound 1 maleate, or Compound 1 free base) in a capsule at a dose of 30 mg/kg. Following dose administration, the animals were flushed with approximately 10 milliliters of tap water to ensure all API was administered. Animals were observed twice daily and at sample collection time-points for any abnormal clinical and behavioral signs. Body weights were taken prior to dosing and weekly thereafter until study termination. Blood samples (0.5 mL) were collected pre-dose, 15 minutes, 30 minutes, and 1, 2, 4, 6, 8, 10, 12, and 24 hours post-dose. Each blood sample was collected from the monkey's femoral, saphenous or other available vein via direct venipuncture, placed into a polypropylene tube containing K2EDTA as the anticoagulant, and gently inverted several times to mix. The blood samples were kept on wet ice until centrifugation. Blood was centrifuged within 10 minutes of collection. The samples were centrifuged at a temperature of 4° C., at 3,000 g, for 5 minutes. The resulting plasma (˜0.25 mL) was divided into two equal aliquots (125 μL each) into polypropylene tubes, designated as Set A and Set B, after centrifugation. Plasma samples designated for certain metabolites (Set A) were treated with 12.5 μL of 2 M ascorbic acid (plasma: ascorbic acid=[…], v:v) prepared beforehand by combining 0.352 g of ascorbic acid into 1 mL of sterile water in a glass vial and mixing thoroughly. […] Once plasma was prepared, the samples were snap frozen on dry ice. All plasma samples were stored frozen below −70° C. until analyzed.

Series [2] is described as follows: Intrinsic dissolution rate and solubility in 0.1 N HCl with 1% Tween 80 (USP <1087>). The conditions noted are these: for Intrinsic Dissolution Rate IDR: paddle 100 rpm, die surface 0.5 cm^2. The class given is physicochemical. On the procedure:
The intrinsic dissolution rate was determined by forming compacted pellets of approximately 75 mg of API using a compression force of 1200 pounds of force, and each pellet (die surface area: 0.5 cm^2) was immersed into a flat bottom vessel containing 500 mL of medium (aqueous 0.1 N HCl with 1% Tween 80 (polyoxyethylene (20) sorbitan monooleate)), using a Distek 2100A dissolution bath, and Distek Circulator/heater (set to 37° C.), with a paddle speed of 100 rpm. An aliquot of the sample (1 mL) was pulled from dissolution media at 15, 30, 45, 60, 75, 90, 105, and 120 minutes, filtered, and analyzed by HPLC. The slope of the dissolution profile corresponded to an intrinsic dissolution rate of hemi-fumarate salt Form B of 6.2 μg/(min·cm^2) as compared to 8.9 μg/(min·cm^2) for Compound 1 (free base). Determination of intrinsic dissolution rate (IDR) was performed for Compound 1 and seven different salts of Compound 1 according to USP <1087> in 0.1 N hydrochloric acid with 1% Tween 80 (Polyoxyethylene […] sorbitan monooleate). Compacted pellets containing approximately 75 mg API were prepared using a compression force of 1200 pounds of force, and each pellet (die surface area: 0.5 cm^2) was immersed into a flat bottom vessel containing 500 mL of medium, using a Distek 2100A dissolution bath, and Distek Circulator/heater (set to 37° C.), with a paddle speed of 100 rpm. An aliquot of the sample (1 mL) was pulled from dissolution media at 15, 30, 45, 60, 75, 90, 105, and 120 minutes, filtered, and analyzed by HPLC. HPLC for IDR and solid-state stability analyses were conducted with an Agilent 1260 Infinity system equipped with a G1311B Quad pump, […] Autosampler, G1330B auto-sampler thermostat, G1316A Thermostatted Column Compartment with a column switch valve, and […] diode array detector.

A short description of series [3]: Solid-state stability by HPLC and XRPD. The class given is physicochemical. Particulars: after 4 weeks. As to the method: Solid-state stability of the fumarate salt of Compound 1 was assessed after storage at the following conditions for 2 and 4 weeks by HPLC and XRPD: 40° C./75% RH (opened); and 50° C./ambient RH (closed). […] Solid-state stability of Compound 1 and seven salts of Compound 1, as in Example 8, was assessed after storage at the following conditions for 2 and 4 weeks by HPLC and PXRD: 40° C./75% RH (opened); and 50° C./ambient RH (closed). HPLC for IDR and solid-state stability analyses were conducted with an Agilent 1260 Infinity system equipped with a G1311B Quad pump, […] Autosampler, G1330B auto-sampler thermostat, G1316A Thermostatted Column Compartment with a column switch valve, and […] diode array detector.

Series [4] in a line: Gravimetric vapor sorption (GVS). It counts as physicochemical. As to the method: Selected physicochemical data of Form B were collected. Hemi-fumarate salt Form B was determined to be crystalline by polarized-light microscopy (PLM) and XRPD. […] (ΔH=1.7 J/g), followed immediately by a sharp endotherm at 199.6° C. […] (see FIG. 7). Proton NMR confirmed a hemi-salt with 0.5:1 CI:API ratio. […] No change in the XRPD pattern was observed post GVS.
GVS experiments were conducted on a Surface Measurement Systems DVS-Advantage. The experiments were performed at 25° C. The instrument was operated in step mode and the relative humidity was increased in 10% RH increments from 40% RH to 75% RH, then decreased from 75% RH to 5% RH, then increased a second time from 5% RH to 95% RH, then decreased from 95% RH to 5% RH. The mass equilibrium criterion was set at 0.003% change in mass over time (dm/dt). A minimum step time of 20 minutes and a maximum step time of 240 minutes were specified.

Series [5] can be described thus: Oral non-human primate crossover PK study (Example 7). The class given is in vivo, cynomolgus monkeys. Particulars: both micronized and non-micronized form; cynomolgus monkeys, single PO capsule. From the text: An objective of this study is to determine the Pharmacokinetic (PK) profile of the Test Article following a single oral administration to four male non-human primate cynomolgus monkeys with one (1) week wash out periods.
Four male animals are used for this study, and the four study animals are used for each of three dosing phases with one-week washout periods. Food is withheld overnight prior to dose administration, and food is returned four hours post-dose administration. Water is provided ad libitum by automatic watering device. Two of the four animals are previously treated with Compound 1, and the other two are Compound 1 naive. Test Article (M-3, N-3, or K-13) are provided as capsulized powders; stored at room temperature protected from light in, for example, a polyolefin bottle.

[6] abbreviates: 3 male cynomolgus monkeys, plasma Compound 1.
Where [7] appears, read: 0.1 N HCl with 1% Tween 80, 37° C., 500 mL, pellet about 75 mg.

As to `[2H]C([2H])([2H])C(c1cc2nnc(-c3cc(F)ccc3F)n2nc1OCc1ncnn1C)(C([2H])([2H])[2H])C([2H])([2H])[2H]` [Hydrochloride Salt, 3-(2,5-difluorophenyl)-7-[1,1-di(methyl-d3)ethyl-2,2,2-d3]-6-[(1-methyl-1H-1,2,4-triazol-5-yl)methoxy]-1,2,4-triazolo[4,3-b]pyridazine], in series [1] (setting [6]), the AUClast was 25402 ng·h/mL; the maximum concentration (Cmax) – broadly, the highest concentration seen after dosing – came out at 1583 ng/mL; the time of peak concentration (Tmax) (as a rule, the time at which the peak concentration occurs) was 4.0 h. Moreover, in series [2] (setting [7]), the “Solubility, time point 15 min” value stood at 0.452 µg/mL and the “Solubility, time point 120 min” value was 1.13 µg/mL. Moreover, the “Intrinsic Dissolution Rate IDR” value in series [2] (0.1 N HCl with 1% Tween 80, 37° C., listed as HCl Salt) is reported as 6.9 μg/(min · cm^2). In addition, the solubility – broadly, how much of the substance goes into solution per volume – at 30 min in series [2] (0.1 N HCl with 1% Tween 80, 37 °C, aqueous with cosolvent or surfactant or cyclodextrin, 500 mL, pellet about 75 mg, 30 min, read-out: Solubility, time point 30 min) amounted to 0.358 µg/mL. Further, the solubility at 45 min in series [2] (0.1 N HCl with 1% Tween 80, 37 °C, aqueous with cosolvent or surfactant or cyclodextrin, 500 mL, pellet about 75 mg, 45 min, read-out: Solubility, time point 45 min) stood at 0.561 µg/mL. In addition, in series [2] (0.1 N HCl with 1% Tween 80, 37 °C, aqueous with cosolvent or surfactant or cyclodextrin, 500 mL, pellet about 75 mg, 60 min, read-out: Solubility, time point 60 min), the solubility at 60 min turned out to be 0.59 µg/mL. Further, the solubility at 75 min in series [2] (0.1 N HCl with 1% Tween 80, 37 °C, aqueous with cosolvent or surfactant or cyclodextrin, 500 mL, pellet about 75 mg, 75 min, read-out: Solubility, time point 75 min) worked out at 0.723 µg/mL. Besides, in series [2] (0.1 N HCl with 1% Tween 80, 37 °C, aqueous with cosolvent or surfactant or cyclodextrin, 500 mL, pellet about 75 mg, 90 min, read-out: Solubility, time point 90 min), the solubility at 90 min stood at 0.847 µg/mL. Also, the solubility at 105 min in series [2] (0.1 N HCl with 1% Tween 80, 37 °C, aqueous with cosolvent or surfactant or cyclodextrin, 500 mL, pellet about 75 mg, 105 min, read-out: Solubility, time point 105 min) was found to be 0.989 µg/mL. The solubility in series [2] (0.1 N HCl with 1% Tween 80, 37 °C, aqueous with cosolvent or surfactant or cyclodextrin, sum of the 15-120 min time points, read-out: Solubility, Cumulative) was determined as 5.65 µg/mL. The “Solid-state stability, XRPD pattern” value in series [3] (40° C./75% RH) is recorded as “small signal at 10° 2θ of Compound 1 (free base)”.

For the molecule `[2H]C([2H])([2H])C(c1cc2nnc(-c3cc(F)ccc3F)n2nc1OCc1ncnn1C)(C([2H])([2H])[2H])C([2H])([2H])[2H]` [Fumarate Salt, 3-(2,5-difluorophenyl)-7-[1,1-di(methyl-d3)ethyl-2,2,2-d3]-6-[(1-methyl-1H-1,2,4-triazol-5-yl)methoxy]-1,2,4-triazolo[4,3-b]pyridazine], in series [1] (setting [6]), the Cmax came out at 3080 ng/mL and the Tmax was 4.7 h. The highest concentration (Cmax) entry in series [1] (3 male cynomolgus monkeys, plasma Compound 1, listed as fumarate salt of Compound 1, 30 mg/kg) is on record as “about 3080 ng/mL”. In series [1] (male cynomolgus monkeys), the “AUClast higher than that of Compound 1” value is listed as “over 50%” and the “Cmax higher than that of Compound 1 (free base)” value is “over 98%”. Also, the AUC(0-t) (as a rule, exposure summed from dosing to a finite time, without extrapolation to infinity) in series [1] (male, cynomolgus monkey, plasma, po, male cynomolgus monkeys) stood at 38900 ng·h/mL. In series [2] (setting [7]), the “Solubility, time point 15 min” value worked out at 0.342 µg/mL and the “Solubility, time point 120 min” value is 0.993 µg/mL. For the same molecule, the “Solubility, time point 30 min” value in series [2] (0.1 N HCl with 1% Tween 80, 37° C., 500 mL, pellet about 75 mg, 30 min) is 0.404 µg/mL. The “Solubility, time point 45 min” value in series [2] (0.1 N HCl with 1% Tween 80, 37° C., 500 mL, pellet about 75 mg, 45 min) came out at 0.46 µg/mL. Besides, in series [2] (0.1 N HCl with 1% Tween 80, 37° C., 500 mL, pellet about 75 mg, 60 min), the “Solubility, time point 60 min” value turned out to be 0.576 µg/mL. The “Solubility, time point 75 min” value in series [2] (0.1 N HCl with 1% Tween 80, 37° C., 500 mL, pellet about 75 mg, 75 min) is 0.684 µg/mL. Besides, in series [2] (0.1 N HCl with 1% Tween 80, 37° C., 500 mL, pellet about 75 mg, 90 min), the “Solubility, time point 90 min” value was found to be 0.79 µg/mL. Further, the “Solubility, time point 105 min” value in series [2] (0.1 N HCl with 1% Tween 80, 37° C., 500 mL, pellet about 75 mg, 105 min) amounted to 0.87 µg/mL. Further, the “Intrinsic Dissolution Rate IDR” value in series [2] (0.1 N HCl with 1% Tween 80, 37° C.) is 6.2 μg/(min · cm^2). For the same molecule, the “Intrinsic Dissolution Rate IDR” value in series [2] (0.1 N HCl with 1% Tween 80, 37° C., listed as hemi-fumarate salt Form B) was 6.2 μg/(min · cm^2). Besides, the “Solubility, Cumulative” value in series [2] (sum of the 15-120 min time points, 0.1 N HCl with 1% Tween 80, 37° C.) stood at 5.119 µg/mL. Further, the “XRPD pattern post GVS” value in series [4] (after GVS) was “No change”. Also, the “moisture uptake (GVS)” value in series [4] (between 5-95% RH, 25° C.) was below 0.1 % wt. For the same molecule, in series [3] (40° C./75% RH (opened) and 50° C./ambient RH (closed)), the “Solid-state stability by HPLC or XRPD” value is listed as “No significant changes”. For the same molecule, in series [5], the “exposure to Compound 1 as compared to subjects dosed with the free base” value is listed as “superior exposure”.
